From ChEMBL document CHEMBL1201862, “PubChem BioAssay data set” (2004)
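Step 1: Grow cells in 96-well plates. Step 2: Expose to compound for 48 hours at 5 concentrations. Step 3: Interpolate endpoints linearly; if unreached, use highest concentration. GI50 = concentration required for 50% inhibition of growth.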 Active and inactive are the calls of the source. Cut-off read from the data, not from the text of the source: active = GI50 up to about 1.1 µM and inactive = higher.

What was measured:
Test in all cases: DTP human tumour cell line panel, 48 h
[1] = system: 786-0
[2] = system: A498
[3] = system: A549
[4] = system: ACHN
[5] = system: CAKI-1
[6] = system: CCRF-CEM
[7] = system: COLO 205
[8] = system: DLD-1
[9] = system: DMS-114
[10] = system: EKVX
[11] = system: HCC 2998
[12] = system: HCT-116
[13] = system: HCT-15
[14] = system: HL-60
[15] = system: HOP-18
[16] = system: HOP-62
[17] = system: HOP-92
[18] = system: HT-29
[19] = system: IGROV-1
[20] = system: K562
[21] = system: KM-20L2
[22] = system: KM12
[23] = system: LOX IMVI
[24] = system: LXFL 529
[25] = system: M14
[26] = system: M19-MEL
[27] = system: MOLT-4
[28] = system: Malme-3M
[29] = system: NCI-H226
[30] = system: NCI-H23
[31] = system: NCI-H460
[32] = system: NCI-H522
[33] = system: OVCAR-3
[34] = system: OVCAR-5
[35] = system: OVCAR-8
[36] = system: RPMI-8226
[37] = system: RXF 393
[38] = system: RXF 631
[39] = system: SF-268
[40] = system: SF-295
[41] = system: SF-539
[42] = system: SK-MEL-28
[43] = system: SK-MEL-2
[44] = system: SK-MEL-5
[45] = system: SK-OV-3
[46] = system: SN12C
[47] = system: SNB-19
[48] = system: SNB-75
[49] = system: SNB-78
[50] = system: SR
[51] = system: TK-10
[52] = system: U-251
[53] = system: UACC-257
[54] = system: UACC-62
[55] = system: UO-31
[56] = system: XF498
[57] = system: DMS-273
[58] = system: OVCAR-4
[59] = system: SW-620

With `CN1CC[C@]2(C)c3ccc(O)cc3CC3CCCC1C32C` (stereo partly specified) the GI50 [1] was > 100 µM (inactive), the GI50 [2] was > 100 µM (inactive) and the GI50 [3] was > 100 µM (inactive). The GI50 [4] was > 100 µM (inactive), the GI50 [5] was > 100 µM (inactive) and the GI50 [6] was > 100 µM (inactive). The GI50 [7] was > 100 µM (inactive), the GI50 [8] was > 100 µM (inactive) and the GI50 [9] was > 100 µM (inactive). For the same compound, the GI50 [10] was > 100 µM (inactive), the GI50 [11] was > 100 µM (inactive) and the GI50 [12] was > 100 µM (inactive). For the same compound, the GI50 [13] was greater than 100 µM, the GI50 [14] was > 100 µM (inactive) and the GI50 [15] was > 100 µM (inactive). For the same compound, the GI50 [16] was > 100 µM (inactive), the GI50 [17] was > 100 µM (inactive) and the GI50 [18] was > 100 µM (inactive). For the same compound, the GI50 [19] was > 100 µM (inactive), the GI50 [20] was > 100 µM (inactive) and the GI50 [21] was > 100 µM (inactive). For the same compound, the GI50 [22] was > 100 µM (inactive), the GI50 [23] was > 100 µM (inactive) and the GI50 [24] was > 100 µM (inactive). For the same compound, the GI50 [25] was > 100 µM (inactive), the GI50 [26] was > 100 µM (inactive) and the GI50 [27] was > 100 µM (inactive). For the same compound, the GI50 [28] was > 100 µM (inactive), the GI50 [29] was > 100 µM (inactive) and the GI50 [30] was > 100 µM (inactive). The GI50 [31] was > 100 µM (inactive), the GI50 [32] was > 100 µM (inactive) and the GI50 [33] was > 100 µM (inactive). For the same compound, the GI50 [34] was > 100 µM (inactive), the GI50 [35] was > 100 µM (inactive) and the GI50 [36] was > 100 µM (inactive). The GI50 [37] was > 100 µM (inactive), the GI50 [38] was > 100 µM (inactive) and the GI50 [39] was > 100 µM (inactive). For the same compound, the GI50 [40] was > 100 µM (inactive), the GI50 [41] was > 100 µM (inactive) and the GI50 [42] was > 100 µM (inactive). The GI50 [43] was > 100 µM (inactive), the GI50 [44] was > 100 µM (inactive) and the GI50 [45] was > 100 µM (inactive). For the same compound, the GI50 [46] was > 100 µM (inactive), the GI50 [47] was > 100 µM (inactive) and the GI50 [48] was 80.9 µM (inactive). For the same compound, the GI50 [49] was > 100 µM (inactive), the GI50 [50] was > 100 µM (inactive) and the GI50 [51] was > 100 µM (inactive). For the same compound, the GI50 [52] was > 100 µM (inactive), the GI50 [53] was > 100 µM (inactive) and the GI50 [54] was > 100 µM (inactive). The GI50 [55] was 92.3 µM (inactive) and the GI50 [56] was > 100 µM (inactive).
For `C#CCOCn1cnc2c(Cl)ncnc21`, the GI50 [1] was > 100 µM (inactive), the GI50 [2] was > 100 µM (inactive) and the GI50 [3] was > 100 µM (inactive). For the same compound, the GI50 [4] was > 100 µM (inactive), the GI50 [5] was > 100 µM (inactive) and the GI50 [6] was > 100 µM (inactive). For the same compound, the GI50 [7] was > 100 µM (inactive), the GI50 [8] was > 100 µM (inactive) and the GI50 [9] was 41.4 µM (inactive). For the same compound, the GI50 [57] was > 100 µM (inactive), the GI50 [10] was > 100 µM (inactive) and the GI50 [11] was > 100 µM (inactive). For the same compound, the GI50 [12] was > 100 µM (inactive), the GI50 [15] was > 100 µM (inactive) and the GI50 [16] was > 100 µM (inactive). The GI50 [17] was > 100 µM (inactive), the GI50 [18] was > 100 µM (inactive) and the GI50 [19] was > 100 µM (inactive). For the same compound, the GI50 [20] was 59.6 µM (inactive), the GI50 [22] was > 100 µM (inactive) and the GI50 [23] was 52.6 µM (inactive). The GI50 [24] was > 100 µM (inactive), the GI50 [25] was > 100 µM (inactive) and the GI50 [26] was > 100 µM (inactive). The GI50 [27] was 67.5 µM (inactive), the GI50 [28] was > 100 µM (inactive) and the GI50 [29] was > 100 µM (inactive). The GI50 [30] was > 100 µM (inactive), the GI50 [31] was > 100 µM (inactive) and the GI50 [32] was 86.1 µM (inactive). The GI50 [33] was > 100 µM (inactive), the GI50 [58] was > 100 µM (inactive) and the GI50 [34] was > 100 µM (inactive). For the same compound, the GI50 [35] was > 100 µM (inactive), the GI50 [36] was > 100 µM (inactive) and the GI50 [38] was > 100 µM (inactive). For the same compound, the GI50 [39] was > 100 µM (inactive), the GI50 [40] was > 100 µM (inactive) and the GI50 [41] was > 100 µM (inactive). The GI50 [42] was > 100 µM (inactive), the GI50 [43] was > 100 µM (inactive) and the GI50 [44] was > 100 µM (inactive). For the same compound, the GI50 [45] was > 100 µM (inactive), the GI50 [46] was > 100 µM (inactive) and the GI50 [47] was > 100 µM (inactive). For the same compound, the GI50 [48] was > 100 µM (inactive), the GI50 [49] was > 100 µM (inactive) and the GI50 [50] was 50.9 µM (inactive). The GI50 [59] was > 100 µM (inactive), the GI50 [51] was > 100 µM (inactive) and the GI50 [52] was > 100 µM (inactive). The GI50 [53] was > 100 µM (inactive), the GI50 [54] was > 100 µM (inactive) and the GI50 [55] was > 100 µM (inactive). The GI50 [56] was > 100 µM (inactive).
